Measurements reported in PMC5358776, “Insight into the mechanism of action of temporin-SHa, a new broad-spectrum antiparasitic and antibacterial agent” (PLoS ONE, 2017).
Like-named read-outs stand apart in the source and are kept apart here. Where no end group is shown, it is not given here.

Legend:
A. baumannii ATCC 19606 = settings: MH broth, 10^6 cfu/ml; mean of 3 independent experiments in triplicate
Description: (§1) Activity against bacteria and yeasts was assessed with a liquid growth inhibition assay performed in 96-well microtitration plates, according to a previously described protocol [14], using mid-logarithmic phase cultures diluted in Mueller-Hinton (MH, Dominique Dutscher) broth (LB broth for E. faecalis strain and YPD medium for yeasts/fungi) to an A630 value of 0.01 (10^6 cfu/ml) and 2-fold serial dilutions of synthetic temporin (200–1 μM, final concentrations). The minimal inhibitory concentration (MIC) was determined as the mean value of three independent experiments, each performed in triplicate with negative (H2O) and positive (0.7% formaldehyde) controls.

[1] = system: S. enterica (serotype Enteritidis); settings: MH broth, 10^6 cfu/ml; mean of 3 independent experiments in triplicate
Description: as §1

[2] = system: L. infantum (antimony resistant) promastigotes; settings: antimony-resistant parasites
Description: (§2) Antiparasitic activity was evaluated against trypanosomatids, such as Leishmania and Trypanosoma. Antileishmanial activity was determined either by a luminescence-based assay (L. infantum, L. major and L. braziliensis) or by cell counting (FACSCalibur flow cytometer, Becton-Dickinson Biosciences, Woburn, MA, USA) after staining with propidium iodide (L. tropica and L. amazonensis), as previously described [23], using promastigotes or axenic amastigotes (1.25 x 10^6 parasites/ml) in mid-log phase and 5-fold serial dilutions of synthetic temporin (50–3.1 μM, final concentrations). Antitrypanosomal activity against T. brucei gambiense and T. cruzi was assessed by cell counting, similar to the L. tropica and L. amazonensis analysis, after incubation of the parasites (96 h for T. brucei gambiense and 120 h for T. cruzi) with the synthetic temporin, as previously described [23]. The half maximal inhibitory concentration (IC50) value was determined with GraphPad Prism 6.0 software (GraphPad Software, La Jolla, CA, USA) using a sigmoidal dose response (variable slope) curve fitting equation. The results are expressed as the means of three independent experiments performed in triplicate (luminescence-based assays) or in duplicate (cell counting-based assays).

[3] = system: L. infantum promastigotes
Description: (§3) L. infantum axenic amastigotes were differentiated from promastigotes in MAA medium (supplemented with 20% FCS) and were grown at 37°C in 5% CO2 [23].
(§4) Antiparasitic activity was evaluated against trypanosomatids, such as Leishmania and Trypanosoma. Antileishmanial activity was determined either by a luminescence-based assay (L. infantum, L. major and L. braziliensis) or by cell counting (FACSCalibur flow cytometer, Becton-Dickinson Biosciences, Woburn, MA, USA) after staining with propidium iodide (L. tropica and L. amazonensis), as previously described [23], using promastigotes or axenic amastigotes (1.25 x 10^6 parasites/ml) in mid-log phase and 5-fold serial dilutions of synthetic temporin (50–3.1 μM, final concentrations). […] The half maximal inhibitory concentration (IC50) value was determined with GraphPad Prism 6.0 software (GraphPad Software, La Jolla, CA, USA) using a sigmoidal dose response (variable slope) curve fitting equation. The results are expressed as the means of three independent experiments performed in triplicate (luminescence-based assays) or in duplicate (cell counting-based assays).

[4] = system: Human THP-1-derived macrophages; assay: Cytotoxicity, Trypan blue staining; settings: 1–100 μM, mean of 3 independent experiments, six replicates
Description: (§5) Hemolytic assays were also performed using erythrocytes obtained from fresh blood samples of Wistar male rats (Charles River Laboratories, France). The hemolytic activity was measured by incubating the peptide (1–200 μM, final concentrations) with erythrocytes (2 x 10^7 cells) in PBS (100 μl) for 1 h at 37°C, as previously described [23]. A parallel incubation in the presence of 0.1% (v/v) Triton-X100 was carried out to determine the absorbance associated with 100% hemolysis. […] For THP-1-derived macrophages, viability was determined by Trypan blue staining after incubation with peptide (1–100 μM, final concentrations). LC50 (average concentration of the peptide producing 50% cell lysis) and IC50 values were determined with GraphPad Prism 6.0 software and correspond to the mean obtained from three independent experiments carried out with three (erythrocytes, THP-1 monocytes, HepG2 and HFF cells) or six replicates (THP-1-derived macrophages).
(§6) IC50 or LC50 values were determined for the different human cells mentioned above in the cytotoxicity assays.

Human erythrocytes = assay: Hemolytic assay; settings: 1 h, 37°C, PBS, 2 x 10^7 cells; mean of 3 independent experiments in triplicate
Description: as §5, §6

E. faecalis ATCC 29212 = settings: LB broth, 10^6 cfu/ml; mean of 3 independent experiments in triplicate
Description: (§7) Listeria ivanovii Li4pVS2 (kindly provided by Jean-Marc Berjeaud, Université de Poitiers, France), and Streptococcus pyogenes ATCC 19615 (ATCC) were cultured in brain heart infusion (BHI, Sigma-Aldrich) medium under the same conditions.
as §1

S. aureus ATCC BAA-44 = settings: multidrug-resistant strain; MH broth, 10^6 cfu/ml; mean of 3 independent experiments in triplicate
S. cerevisiae = settings: YPD medium; mean of 3 independent experiments in triplicate
Description: (§8) Candida albicans ATCC 90028, Candida parapsilosis ATCC 22019 (ATCC), and Saccharomyces cerevisiae (laboratory collection) were cultured in yeast peptone dextrose (YPD, Sigma-Aldrich) medium at 30°C.
(§9) The minimal inhibitory concentration (MIC) was determined as the mean value of three independent experiments, each performed in triplicate with negative (H2O) and positive (0.7% formaldehyde) controls.

S. aureus ST1065 = settings: MH broth, 10^6 cfu/ml; mean of 3 independent experiments in triplicate
Description: as §1

S. aureus ATCC 25923 = settings: MH broth, 10^6 cfu/ml; mean of 3 independent experiments in triplicate
Description: as §1

C. albicans ATCC 90028 = settings: YPD medium; mean of 3 independent experiments in triplicate
Description: as §8, §9

Human HepG2 = settings: MTT, 72 h, 37°C, 50–600 μM; mean of 3 independent experiments in triplicate
S. pyogenes ATCC 19615 = settings: MH broth, 10^6 cfu/ml; mean of 3 independent experiments in triplicate
Description: as §7, §1

[5] = system: promastigotes of several species of Leishmania; settings: read-out: IC50 (range over Leishmania species); promastigotes of L. infantum, L. major, L. amazonensis, L. braziliensis
Description: as §2

Human THP-1 monocytes = settings: MTT, 72 h, 37°C, 1–60 μM; mean of 3 independent experiments in triplicate
Yeasts/fungi = settings: 3 yeast/fungal strains of Table 3
T. cruzi epimastigotes = settings: 120 h incubation, cell counting; mean of 3 independent experiments in duplicate
Description: as §2

E. coli ML-35p [6] = assay: Time-kill assay; type: cell-based, Escherichia coli; settings: 120-min exposure, 12 μM, PBS, 10^6 cfu/ml
Description: Time-kill assays were performed on bacteria and Leishmania infantum promastigotes. For bacteria (E. coli ML-35p and S. aureus ST1065, 10^6 cfu/ml), assays were performed as previously described, with final temporin concentrations of 6 and 12 μM. For parasite time-kill assays, Leishmania infantum promastigotes harvested in exponential phase were washed twice (1,000 x g, 10 min) with Hank's balanced salt solution (HBSS) supplemented with 20 mM glucose and then suspended in the same buffer to a density of 2.5 x 10^6 cells/ml. This suspension (800 μl) was incubated with 200 μl of a 5X temporin solution, and parasitic death was evaluated at different times by counting parasites (FACSCalibur) after staining with 1 μg/ml propidium iodide (Molecular Probes). Negative controls were assayed without peptides. Three experiments were carried out in triplicate for bacteria or in duplicate for parasites.

T. brucei gambiense = settings: 96 h incubation, cell counting; mean of 3 independent experiments in duplicate
Description: as §2

[7] = system: L. braziliensis promastigotes; settings: mean of 3 independent experiments in triplicate
Description: as §3, §4

Gram-positive bacteria = settings: 7 Gram-positive strains of Table 3
Rat erythrocytes = settings: 1 h, 37°C, PBS, 2 x 10^7 cells; mean of 3 independent experiments in triplicate
Description: as §5, §6

Human fibroblasts (HFF) = settings: MTT, 72 h, 37°C, 1–100 μM; mean of 3 independent experiments in triplicate
L. major promastigotes = settings: mean of 3 independent experiments in triplicate
Description: as §3, §4

[8] = system: C. parapsilosis ATCC 22019; settings: YPD medium; mean of 3 independent experiments in triplicate
Description: as §8, §9

[9] = system: L. infantum promastigotes; settings: 3 μM, at 180 min, HBSS
S. aureus ATCC 43300 = settings: strain resistant to methicillin and oxacillin; MH broth, 10^6 cfu/ml; mean of 3 independent experiments in triplicate
Description: as §7, §1

Gram-negative bacteria = settings: 6 Gram-negative strains of Table 3
[10] = system: L. infantum (intramacrophagic) amastigotes in THP-1-derived macrophages; settings: infected THP-1-derived macrophages, 4 days; mean of 2 experiments with six replicates
Description: Leishmania infantum (strain MHOM/MA/67/ITMAP-263), Leishmania major (strain MHOM/SU/73/5-ASKH), Leishmania tropica (strain MHOM/SU/74/SAFK27), Leishmania amazonensis (strain MHOM/BR/73/M2269), and Leishmania braziliensis (strain MHOM/BR/75/M2904) promastigotes (kindly provided by Francine Pratlong, Centre National de Référence des Leishmania, Montpellier, France) were cultured at 26°C in SDM-79 medium supplemented with 10% fetal calf serum (FCS, Gibco) [23]. […] L. infantum-infected human macrophages were obtained from human THP-1 monocytes, as previously described [23, 78].
Intramacrophagic leishmanicidal activity of the peptides was assessed by incubating L. infantum-infected human macrophages with 2-fold serial dilutions of peptide (50–2.5 μM, final concentrations) for 4 days, as previously described [23]. THP-1-derived macrophages were infected with promastigotes from late log phase at a density of 5 x 10^5 cells/well (ratio 10:1) in RPMI medium for 24 h at 37°C with 5% CO2. […] The results are expressed as the means of two experiments performed with six replicates.

[11] = system: L. amazonensis promastigotes; settings: cell counting; mean of 3 independent experiments in duplicate
Description: as §3, §4

E. coli ML-35p [12] = settings: MH broth, 10^6 cfu/ml; mean of 3 independent experiments in triplicate
Description: as §7, §1

[13] = system: L. infantum (axenic) amastigotes; settings: axenic amastigotes
Description: as §3, §4

P. aeruginosa ATCC 27853 = settings: MH broth, 10^6 cfu/ml; mean of 3 independent experiments in triplicate
Description: as §7, §1

K. pneumoniae ATCC 13883 = settings: MH broth, 10^6 cfu/ml; mean of 3 independent experiments in triplicate
Description: as §1

L. ivanovii = settings: MH broth, 10^6 cfu/ml; mean of 3 independent experiments in triplicate
Description: as §7, §1

E. coli ATCC 25922 = settings: MH broth, 10^6 cfu/ml; mean of 3 independent experiments in triplicate
Description: as §7, §1

FLSGIVGMLGKLF-NH2 [SHa, temporin-SHa]
MIC (A. baumannii ATCC 19606): 6 µM | MIC [1]: 25 µM | IC50 [2]: 14 µM | IC50 ([3]; medium with serum, mean of 3 independent experiments in triplicate): 18 µM | IC50 ([3]; serum-free medium (values in parentheses)): 8 µM | LC50 [4]: 60 µM | LC50 (Human erythrocytes): 25 µM | MIC (E. faecalis ATCC 29212): 12 µM | MIC (S. aureus ATCC BAA-44): 6 µM | MIC (S. cerevisiae): 12 µM | MIC (S. aureus ST1065): 6 µM | MIC (S. aureus ATCC 25923): 3 µM | MIC (C. albicans ATCC 90028): 25 µM | IC50 (Human HepG2): 560 µM | MIC (S. pyogenes ATCC 19615): 6 µM | IC50 [5]: 7 to 18 µM | IC50 (Human THP-1 monocytes): > 60 µM | MICGM (geometric mean of the MIC values) (Yeasts/fungi): 31.1 µM | IC50 (T. cruzi epimastigotes): 17 µM | killing (E. coli ML-35p [6]): approximately 93% | IC50 (T. brucei gambiense): 14 µM | IC50 [7]: 7 µM | MICGM (geometric mean of the MIC values) (Gram-positive bacteria): 6 µM | LC50 (Rat erythrocytes): 25 µM | IC50 (Human fibroblasts (HFF)): > 100 µM | IC50 (L. major promastigotes): 13 µM | MIC [8]: 100 µM | killing [9]: 38% | MIC (S. aureus ATCC 43300): 6 µM | MICGM (geometric mean of the MIC values) (Gram-negative bacteria): 14.4 µM | IC50 [10]: 9 µM | IC50 [11]: 13 µM | MIC (E. coli ML-35p [12]): 10 µM | IC50 [13]: 20 µM | MIC (P. aeruginosa ATCC 27853): 50 µM | MIC (K. pneumoniae ATCC 13883): 12 µM | MIC (L. ivanovii): 6 µM | MIC (E. coli ATCC 25922): 10 µM
